Results as given in PMC10892423 (Pharmaceutics, 2024).
Like-named read-outs stand apart in the source and are kept apart here.

What was measured:
Format in all cases: biochemical
AmpC = biological target: T1, AmpC (Escherichia coli, UniProt P00811); test: β-lactamase inhibition, nitrocefin hydrolysis
T1 construct: made in house
Excerpt: (§1) Recombinant AmpC from Escherichia coli was produced according to a previously reported protocol. KPC-2 and NDM-1 […] were purchased from LifeSpan Biosciences, Inc. (Lynnwood, WA, USA) (LS-G26598) and RayBiotech, Inc. (Peachtree Corners, GA, USA) (230-00554), respectively. Genes encoding OXA-48 (residues 23–265) and VIM-2 (residues 27–266) were custom-synthesized (Bioneer Inc., Seoul, Republic of Korea) and expressed as previously described. The β-lactamase inhibitory activity of the title compounds was then determined according to the previously reported methods. Briefly, equal volumes (100 μL) of the title compounds (70–0.1 μM in PBS) and diluted enzyme stock were mixed (final concentration 2% of DMSO in 200 μL) in 96-well plates, which were then incubated at 37 °C for 20 min. The incubated mixture was added to each well containing substrates (nitrocefin for AmpC, KPC-2, OXA-48, and VIM-2; and imipenem for NDM-1) of final concentrations of 70 μM for nitrocefin and 100 μM for imipenem. Substrate hydrolysis was monitored at 486 nm (nitrocefin) or 300 nm (imipenem) for 15 min, using a Cytation 5 imaging multimode reader (BioTek Instruments Inc., Winooski, VT, USA). At the plateau level of hydrolysis, the corresponding rates of hydrolysis were compared to those obtained without inhibitors (100%) to determine the percentage of enzyme inhibition at each concentration of the title compounds. The IC50 values of the compounds were derived from sigmoidal dose–response curves, using GraphPad Prism 5 (GraphPad Software, Boston, MA, USA).

KPC-2 = biological target: T2, KPC-2 (Klebsiella pneumoniae, UniProt Q9F663); test: β-lactamase inhibition, nitrocefin hydrolysis
T2 construct: purchased LifeSpan Biosciences, Inc. LS-G26598
T2 sequence (Q9F663 25-293, looked up): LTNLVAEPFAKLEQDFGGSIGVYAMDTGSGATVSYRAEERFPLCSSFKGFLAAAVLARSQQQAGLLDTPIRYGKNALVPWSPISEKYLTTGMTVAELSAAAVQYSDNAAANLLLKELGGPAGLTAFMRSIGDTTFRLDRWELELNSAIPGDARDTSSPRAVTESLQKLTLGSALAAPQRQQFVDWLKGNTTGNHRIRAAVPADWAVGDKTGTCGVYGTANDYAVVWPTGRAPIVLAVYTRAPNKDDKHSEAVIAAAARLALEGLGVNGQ
Excerpt: as §1

OXA-48 = biological target: T3, OXA-48 (Klebsiella pneumoniae, UniProt Q6XEC0); test: β-lactamase inhibition, nitrocefin hydrolysis
T3 construct: Genes encoding OXA-48 (residues 23–265) and VIM-2 (residues 27–266) were custom-synthesized; made in house
T3 sequence (Q6XEC0 23-265 limits assumed): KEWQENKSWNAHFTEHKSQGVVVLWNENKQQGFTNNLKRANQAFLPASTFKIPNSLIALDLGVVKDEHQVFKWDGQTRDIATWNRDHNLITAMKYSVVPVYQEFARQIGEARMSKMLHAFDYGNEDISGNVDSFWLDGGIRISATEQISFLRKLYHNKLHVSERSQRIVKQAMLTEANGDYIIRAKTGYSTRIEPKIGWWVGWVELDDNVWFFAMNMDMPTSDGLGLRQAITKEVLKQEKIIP
Excerpt: as §1

VIM-2 = biological target: T4, VIM-2 (Escherichia coli, UniProt Q5U7L7); test: β-lactamase inhibition, nitrocefin hydrolysis
T4 construct: Genes encoding OXA-48 (residues 23–265) and VIM-2 (residues 27–266) were custom-synthesized; made in house
Excerpt: as §1

NDM-1 = biological target: T5, NDM-1 (Klebsiella pneumoniae, UniProt C7C422); test: β-lactamase inhibition, imipenem hydrolysis
T5 construct: purchased RayBiotech, Inc. 230-00554
T5 sequence (C7C422 29-270, looked up, species assumed): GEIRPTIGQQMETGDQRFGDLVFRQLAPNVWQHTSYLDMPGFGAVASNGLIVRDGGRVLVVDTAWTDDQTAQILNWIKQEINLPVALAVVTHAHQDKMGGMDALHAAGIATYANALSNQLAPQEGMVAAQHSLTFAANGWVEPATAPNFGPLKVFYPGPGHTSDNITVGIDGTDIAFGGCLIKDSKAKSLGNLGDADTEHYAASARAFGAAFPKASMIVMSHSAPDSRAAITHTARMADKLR
Excerpt: as §1

[1] = nitrocefin substrate, read-out: β-Lactamases, IC50 KPC-2
[2] = nitrocefin substrate, read-out: β-Lactamases, IC50 OXA-48
[3] = nitrocefin substrate, read-out: β-Lactamases, IC50 VIM-2
[4] = imipenem substrate, read-out: β-Lactamases, IC50 NDM-1

T1 sequence (P00811 20-377): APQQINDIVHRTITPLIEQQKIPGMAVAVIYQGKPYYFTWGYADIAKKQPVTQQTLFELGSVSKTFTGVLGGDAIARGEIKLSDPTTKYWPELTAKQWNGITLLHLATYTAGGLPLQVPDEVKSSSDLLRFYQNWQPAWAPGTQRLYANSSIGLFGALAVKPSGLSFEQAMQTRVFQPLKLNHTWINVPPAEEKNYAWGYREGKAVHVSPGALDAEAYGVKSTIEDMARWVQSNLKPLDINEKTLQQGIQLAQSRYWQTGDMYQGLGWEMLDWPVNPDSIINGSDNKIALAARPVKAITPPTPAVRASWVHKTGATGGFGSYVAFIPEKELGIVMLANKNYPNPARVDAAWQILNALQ

Structure (SMILES)	IC50 (AmpC)	IC50 (KPC-2; [1])	IC50 (OXA-48; [2])	IC50 (VIM-2; [3])	IC50 (NDM-1; [4])	IC50 (KPC-2)	IC50 (OXA-48)	IC50 (VIM-2)	IC50 (NDM-1)
CC(C)CCOc1c(-c2ccc(F)c(F)c2)oc2cc(O)cc(O)c2c1=O [Compound 24]	> 50 µM	39.4 µM	19.1 µM	42.1 µM	> 50 µM	–	–	–	–
CN1CCCC1CCOc1c(-c2ccc(F)c(F)c2)oc2cc(O)cc(O)c2c1=O (stereo not drawn) [Compound 21]	> 50 µM	> 50 µM	> 100 µM	> 100 µM	> 50 µM	–	–	–	–
O=c1c(OCCN2CCNCC2)c(-c2ccc(F)c(F)c2)oc2cc(O)cc(O)c12 [Compound 17]	> 50 µM	> 50 µM	> 100 µM	> 100 µM	> 50 µM	–	–	–	–
CN1CCN(CCOc2c(-c3ccc(F)c(F)c3)oc3cc(O)cc(O)c3c2=O)CC1 [Compound 16]	> 50 µM	> 50 µM	> 100 µM	> 100 µM	> 50 µM	–	–	–	–
O=c1c(OCCO)c(-c2ccc(F)c(F)c2)oc2cc(O)cc(O)c12 [Compound 8]	> 50 µM	> 50 µM	> 100 µM	> 100 µM	> 50 µM	–	–	–	–
CN(C)CCOc1c(-c2ccc(F)c(F)c2)oc2cc(O)cc(O)c2c1=O [Compound 13]	> 50 µM	> 50 µM	> 100 µM	> 100 µM	> 50 µM	–	–	–	–
O=c1c(OCCN2CC2)c(-c2ccc(F)c(F)c2)oc2cc(O)cc(O)c12 [Compound 14]	> 50 µM	–	–	–	–	> 50 µM	> 100 µM	> 100 µM	> 50 µM
O=c1c(OCCN2CCCC2)c(-c2ccc(F)c(F)c2)oc2cc(O)cc(O)c12 [Compound 18]	> 50 µM	> 50 µM	> 100 µM	> 100 µM	> 50 µM	–	–	–	–
O=c1c(OCCOCCOCCO)c(-c2ccc(F)c(F)c2)oc2cc(O)cc(O)c12 [Compound 10]	> 50 µM	> 50 µM	> 100 µM	> 100 µM	> 50 µM	–	–	–	–
